Each compound was assayed on HCI-001 (organoid from a triple-negative breast cancer xenograft) (assay: CTG-3D luminescence at 96 h relative to day-0 seeding control (ratio to day 0); higher = more growth / less cytotoxicity; PDxO 3D drug screen, 96 h, CTG-3D normalised to day-0 seeding control.). Settings: 12.5 pM; days in culture: 240.

In order of falling “CTG-3D luminescence at 96 h” value:
1. CS(=O)(=O)c1ccc(C(=O)Nc2ccc(Cl)c(-c3ccccn3)c2)c(Cl)c1 [vismodegib]  1.85
2. Cc1nc(-c2cn3c(n2)-c2ccc(-c4cnn(C(C)(C)C(N)=O)c4)cc2OCC3)n(C(C)C)n1 [taselisib]  1.68
3. CC(C)n1nc(-c2ccc3oc(N)nc3c2)c2c(N)ncnc21 [sapanisertib]  1.65
4. CNC(=O)c1cccc(-c2ccc3c(N4CCOC[C@@H]4C)nc(N4CCOC[C@@H]4C)nc3n2)c1 [vistusertib]  1.6
5. Cc1cc(Nc2ncnc3ccc(NC4=NC(C)(C)CO4)cc23)ccc1Oc1ccn2ncnc2c1 [tucatinib]  1.47

Same assay, conditions: 12.5 pM; days in culture: 260

In order of falling “CTG-3D luminescence at 96 h” value:
1. CNC(=O)c1cccc(-c2ccc3c(N4CCOC[C@@H]4C)nc(N4CCOC[C@@H]4C)nc3n2)c1 [vistusertib]  2.82
2. Cc1cc(Nc2ncnc3ccc(NC4=NC(C)(C)CO4)cc23)ccc1Oc1ccn2ncnc2c1 [tucatinib]  2.62
3. CS(=O)(=O)c1ccc(C(=O)Nc2ccc(Cl)c(-c3ccccn3)c2)c(Cl)c1 [vismodegib]  2.49
4. CC(C)n1nc(-c2ccc3oc(N)nc3c2)c2c(N)ncnc21 [sapanisertib]  2.4
5. Cc1nc(-c2cn3c(n2)-c2ccc(-c4cnn(C(C)(C)C(N)=O)c4)cc2OCC3)n(C(C)C)n1 [taselisib]  2.04

Same assay, conditions: 12.5 pM; days in culture: 269

In order of rising “CTG-3D luminescence at 96 h” value:
1. CC(C)n1nc(-c2ccc3oc(N)nc3c2)c2c(N)ncnc21 [sapanisertib]  1.45
2. Cc1cc(Nc2ncnc3ccc(NC4=NC(C)(C)CO4)cc23)ccc1Oc1ccn2ncnc2c1 [tucatinib]  1.48
3. CS(=O)(=O)c1ccc(C(=O)Nc2ccc(Cl)c(-c3ccccn3)c2)c(Cl)c1 [vismodegib]  1.57
4. Cc1nc(-c2cn3c(n2)-c2ccc(-c4cnn(C(C)(C)C(N)=O)c4)cc2OCC3)n(C(C)C)n1 [taselisib]  1.61
5. CNC(=O)c1cccc(-c2ccc3c(N4CCOC[C@@H]4C)nc(N4CCOC[C@@H]4C)nc3n2)c1 [vistusertib]  1.63

Same assay, conditions: 12.5 pM; days in culture: 327

In order of falling “CTG-3D luminescence at 96 h” value:
1. CS(=O)(=O)c1ccc(C(=O)Nc2ccc(Cl)c(-c3ccccn3)c2)c(Cl)c1 [vismodegib]  2.09
2. Cc1cc(Nc2ncnc3ccc(NC4=NC(C)(C)CO4)cc23)ccc1Oc1ccn2ncnc2c1 [tucatinib]  1.8
3. CNC(=O)c1cccc(-c2ccc3c(N4CCOC[C@@H]4C)nc(N4CCOC[C@@H]4C)nc3n2)c1 [vistusertib]  1.63
4. Cc1nc(-c2cn3c(n2)-c2ccc(-c4cnn(C(C)(C)C(N)=O)c4)cc2OCC3)n(C(C)C)n1 [taselisib]  1.4
5. CC(C)n1nc(-c2ccc3oc(N)nc3c2)c2c(N)ncnc21 [sapanisertib]  1.36

Same assay, conditions: 12.5 pM; days in culture: 346

In order of rising “CTG-3D luminescence at 96 h” value:
1. CNC(=O)c1cccc(-c2ccc3c(N4CCOC[C@@H]4C)nc(N4CCOC[C@@H]4C)nc3n2)c1 [vistusertib]  1.29
2. Cc1nc(-c2cn3c(n2)-c2ccc(-c4cnn(C(C)(C)C(N)=O)c4)cc2OCC3)n(C(C)C)n1 [taselisib]  1.31
3. CC(C)n1nc(-c2ccc3oc(N)nc3c2)c2c(N)ncnc21 [sapanisertib]  1.38
4. Cc1cc(Nc2ncnc3ccc(NC4=NC(C)(C)CO4)cc23)ccc1Oc1ccn2ncnc2c1 [tucatinib]  1.47
5. CS(=O)(=O)c1ccc(C(=O)Nc2ccc(Cl)c(-c3ccccn3)c2)c(Cl)c1 [vismodegib]  1.82

Same assay, conditions: 12.5 pM; days in culture: 364

In order of rising “CTG-3D luminescence at 96 h” value:
1. CC(C)n1nc(-c2ccc3oc(N)nc3c2)c2c(N)ncnc21 [sapanisertib]  1.44
2. Cc1cc(Nc2ncnc3ccc(NC4=NC(C)(C)CO4)cc23)ccc1Oc1ccn2ncnc2c1 [tucatinib]  1.49
3. Cc1nc(-c2cn3c(n2)-c2ccc(-c4cnn(C(C)(C)C(N)=O)c4)cc2OCC3)n(C(C)C)n1 [taselisib]  1.5
4. CNC(=O)c1cccc(-c2ccc3c(N4CCOC[C@@H]4C)nc(N4CCOC[C@@H]4C)nc3n2)c1 [vistusertib]  1.51
5. CS(=O)(=O)c1ccc(C(=O)Nc2ccc(Cl)c(-c3ccccn3)c2)c(Cl)c1 [vismodegib]  1.66

Same assay, conditions: 0.00025 µM; days in culture: 240

In order of rising “CTG-3D luminescence at 96 h” value:
1. Cc1cc(Nc2ncnc3ccc(NC4=NC(C)(C)CO4)cc23)ccc1Oc1ccn2ncnc2c1 [tucatinib]  0.88
2. CC(C)n1nc(-c2ccc3oc(N)nc3c2)c2c(N)ncnc21 [sapanisertib]  0.951
3. Cc1nc(-c2cn3c(n2)-c2ccc(-c4cnn(C(C)(C)C(N)=O)c4)cc2OCC3)n(C(C)C)n1 [taselisib]  0.982
4. CNC(=O)c1cccc(-c2ccc3c(N4CCOC[C@@H]4C)nc(N4CCOC[C@@H]4C)nc3n2)c1 [vistusertib]  1.12
5. CS(=O)(=O)c1ccc(C(=O)Nc2ccc(Cl)c(-c3ccccn3)c2)c(Cl)c1 [vismodegib]  1.26

Same assay, conditions: 0.00025 µM; days in culture: 260

In order of falling “CTG-3D luminescence at 96 h” value:
1. CC(C)n1nc(-c2ccc3oc(N)nc3c2)c2c(N)ncnc21 [sapanisertib]  1.29
2. CNC(=O)c1cccc(-c2ccc3c(N4CCOC[C@@H]4C)nc(N4CCOC[C@@H]4C)nc3n2)c1 [vistusertib]  1.1
3. CS(=O)(=O)c1ccc(C(=O)Nc2ccc(Cl)c(-c3ccccn3)c2)c(Cl)c1 [vismodegib]  1.08
4. Cc1nc(-c2cn3c(n2)-c2ccc(-c4cnn(C(C)(C)C(N)=O)c4)cc2OCC3)n(C(C)C)n1 [taselisib]  1.03
5. Cc1cc(Nc2ncnc3ccc(NC4=NC(C)(C)CO4)cc23)ccc1Oc1ccn2ncnc2c1 [tucatinib]  0.988

Same assay, conditions: 0.00025 µM; days in culture: 269

In order of rising “CTG-3D luminescence at 96 h” value:
1. Cc1cc(Nc2ncnc3ccc(NC4=NC(C)(C)CO4)cc23)ccc1Oc1ccn2ncnc2c1 [tucatinib]  1.49
2. Cc1nc(-c2cn3c(n2)-c2ccc(-c4cnn(C(C)(C)C(N)=O)c4)cc2OCC3)n(C(C)C)n1 [taselisib]  1.56
3. CNC(=O)c1cccc(-c2ccc3c(N4CCOC[C@@H]4C)nc(N4CCOC[C@@H]4C)nc3n2)c1 [vistusertib]  1.62
4. CC(C)n1nc(-c2ccc3oc(N)nc3c2)c2c(N)ncnc21 [sapanisertib]  1.79
5. CS(=O)(=O)c1ccc(C(=O)Nc2ccc(Cl)c(-c3ccccn3)c2)c(Cl)c1 [vismodegib]  1.89

Same assay, conditions: 0.00025 µM; days in culture: 327

In order of falling “CTG-3D luminescence at 96 h” value:
1. CS(=O)(=O)c1ccc(C(=O)Nc2ccc(Cl)c(-c3ccccn3)c2)c(Cl)c1 [vismodegib]  1.61
2. Cc1cc(Nc2ncnc3ccc(NC4=NC(C)(C)CO4)cc23)ccc1Oc1ccn2ncnc2c1 [tucatinib]  1.6
3. CNC(=O)c1cccc(-c2ccc3c(N4CCOC[C@@H]4C)nc(N4CCOC[C@@H]4C)nc3n2)c1 [vistusertib]  1.59
4. Cc1nc(-c2cn3c(n2)-c2ccc(-c4cnn(C(C)(C)C(N)=O)c4)cc2OCC3)n(C(C)C)n1 [taselisib]  1.39
5. CC(C)n1nc(-c2ccc3oc(N)nc3c2)c2c(N)ncnc21 [sapanisertib]  0.761

Same assay, conditions: 0.00025 µM; days in culture: 346

In order of rising “CTG-3D luminescence at 96 h” value:
1. Cc1nc(-c2cn3c(n2)-c2ccc(-c4cnn(C(C)(C)C(N)=O)c4)cc2OCC3)n(C(C)C)n1 [taselisib]  1.22
2. Cc1cc(Nc2ncnc3ccc(NC4=NC(C)(C)CO4)cc23)ccc1Oc1ccn2ncnc2c1 [tucatinib]  1.22
3. CNC(=O)c1cccc(-c2ccc3c(N4CCOC[C@@H]4C)nc(N4CCOC[C@@H]4C)nc3n2)c1 [vistusertib]  1.31
4. CC(C)n1nc(-c2ccc3oc(N)nc3c2)c2c(N)ncnc21 [sapanisertib]  1.32
5. CS(=O)(=O)c1ccc(C(=O)Nc2ccc(Cl)c(-c3ccccn3)c2)c(Cl)c1 [vismodegib]  1.38

Same assay, conditions: 0.00025 µM; days in culture: 364

In order of rising “CTG-3D luminescence at 96 h” value:
1. Cc1nc(-c2cn3c(n2)-c2ccc(-c4cnn(C(C)(C)C(N)=O)c4)cc2OCC3)n(C(C)C)n1 [taselisib]  1.06
2. CC(C)n1nc(-c2ccc3oc(N)nc3c2)c2c(N)ncnc21 [sapanisertib]  1.12
3. Cc1cc(Nc2ncnc3ccc(NC4=NC(C)(C)CO4)cc23)ccc1Oc1ccn2ncnc2c1 [tucatinib]  1.19
4. CS(=O)(=O)c1ccc(C(=O)Nc2ccc(Cl)c(-c3ccccn3)c2)c(Cl)c1 [vismodegib]  1.26
5. CNC(=O)c1cccc(-c2ccc3c(N4CCOC[C@@H]4C)nc(N4CCOC[C@@H]4C)nc3n2)c1 [vistusertib]  1.3

Same assay, conditions: 0.005 µM; days in culture: 240

In order of rising “CTG-3D luminescence at 96 h” value:
1. CC(C)n1nc(-c2ccc3oc(N)nc3c2)c2c(N)ncnc21 [sapanisertib]  0.588
2. Cc1cc(Nc2ncnc3ccc(NC4=NC(C)(C)CO4)cc23)ccc1Oc1ccn2ncnc2c1 [tucatinib]  0.65
3. CNC(=O)c1cccc(-c2ccc3c(N4CCOC[C@@H]4C)nc(N4CCOC[C@@H]4C)nc3n2)c1 [vistusertib]  0.733
4. CS(=O)(=O)c1ccc(C(=O)Nc2ccc(Cl)c(-c3ccccn3)c2)c(Cl)c1 [vismodegib]  0.998
5. Cc1nc(-c2cn3c(n2)-c2ccc(-c4cnn(C(C)(C)C(N)=O)c4)cc2OCC3)n(C(C)C)n1 [taselisib]  1.07

Same assay, conditions: 0.005 µM; days in culture: 260

In order of falling “CTG-3D luminescence at 96 h” value:
1. CS(=O)(=O)c1ccc(C(=O)Nc2ccc(Cl)c(-c3ccccn3)c2)c(Cl)c1 [vismodegib]  2.27
2. CNC(=O)c1cccc(-c2ccc3c(N4CCOC[C@@H]4C)nc(N4CCOC[C@@H]4C)nc3n2)c1 [vistusertib]  1.62
3. CC(C)n1nc(-c2ccc3oc(N)nc3c2)c2c(N)ncnc21 [sapanisertib]  1.61
4. Cc1cc(Nc2ncnc3ccc(NC4=NC(C)(C)CO4)cc23)ccc1Oc1ccn2ncnc2c1 [tucatinib]  1.22
5. Cc1nc(-c2cn3c(n2)-c2ccc(-c4cnn(C(C)(C)C(N)=O)c4)cc2OCC3)n(C(C)C)n1 [taselisib]  1.04

Same assay, conditions: 0.005 µM; days in culture: 269

In order of falling “CTG-3D luminescence at 96 h” value:
1. CS(=O)(=O)c1ccc(C(=O)Nc2ccc(Cl)c(-c3ccccn3)c2)c(Cl)c1 [vismodegib]  1.55
2. CNC(=O)c1cccc(-c2ccc3c(N4CCOC[C@@H]4C)nc(N4CCOC[C@@H]4C)nc3n2)c1 [vistusertib]  1.55
3. Cc1nc(-c2cn3c(n2)-c2ccc(-c4cnn(C(C)(C)C(N)=O)c4)cc2OCC3)n(C(C)C)n1 [taselisib]  1.43
4. Cc1cc(Nc2ncnc3ccc(NC4=NC(C)(C)CO4)cc23)ccc1Oc1ccn2ncnc2c1 [tucatinib]  1.39
5. CC(C)n1nc(-c2ccc3oc(N)nc3c2)c2c(N)ncnc21 [sapanisertib]  1.19

Same assay, conditions: 0.005 µM; days in culture: 327

In order of rising “CTG-3D luminescence at 96 h” value:
1. CC(C)n1nc(-c2ccc3oc(N)nc3c2)c2c(N)ncnc21 [sapanisertib]  1.33
2. CNC(=O)c1cccc(-c2ccc3c(N4CCOC[C@@H]4C)nc(N4CCOC[C@@H]4C)nc3n2)c1 [vistusertib]  1.68
3. Cc1nc(-c2cn3c(n2)-c2ccc(-c4cnn(C(C)(C)C(N)=O)c4)cc2OCC3)n(C(C)C)n1 [taselisib]  1.7
4. Cc1cc(Nc2ncnc3ccc(NC4=NC(C)(C)CO4)cc23)ccc1Oc1ccn2ncnc2c1 [tucatinib]  1.87
5. CS(=O)(=O)c1ccc(C(=O)Nc2ccc(Cl)c(-c3ccccn3)c2)c(Cl)c1 [vismodegib]  2.29

Same assay, conditions: 0.005 µM; days in culture: 346

In order of rising “CTG-3D luminescence at 96 h” value:
1. Cc1nc(-c2cn3c(n2)-c2ccc(-c4cnn(C(C)(C)C(N)=O)c4)cc2OCC3)n(C(C)C)n1 [taselisib]  1.02
2. CC(C)n1nc(-c2ccc3oc(N)nc3c2)c2c(N)ncnc21 [sapanisertib]  1.09
3. CNC(=O)c1cccc(-c2ccc3c(N4CCOC[C@@H]4C)nc(N4CCOC[C@@H]4C)nc3n2)c1 [vistusertib]  1.14
4. Cc1cc(Nc2ncnc3ccc(NC4=NC(C)(C)CO4)cc23)ccc1Oc1ccn2ncnc2c1 [tucatinib]  1.17
5. CS(=O)(=O)c1ccc(C(=O)Nc2ccc(Cl)c(-c3ccccn3)c2)c(Cl)c1 [vismodegib]  1.23

Same assay, conditions: 0.005 µM; days in culture: 364

In order of falling “CTG-3D luminescence at 96 h” value:
1. CS(=O)(=O)c1ccc(C(=O)Nc2ccc(Cl)c(-c3ccccn3)c2)c(Cl)c1 [vismodegib]  1.67
2. CNC(=O)c1cccc(-c2ccc3c(N4CCOC[C@@H]4C)nc(N4CCOC[C@@H]4C)nc3n2)c1 [vistusertib]  1.38
3. Cc1nc(-c2cn3c(n2)-c2ccc(-c4cnn(C(C)(C)C(N)=O)c4)cc2OCC3)n(C(C)C)n1 [taselisib]  1.37
4. Cc1cc(Nc2ncnc3ccc(NC4=NC(C)(C)CO4)cc23)ccc1Oc1ccn2ncnc2c1 [tucatinib]  1.34
5. CC(C)n1nc(-c2ccc3oc(N)nc3c2)c2c(N)ncnc21 [sapanisertib]  1.21

From the supplement of paper PMC8882468
